Here are results for four molecules from paper PMC10671360, “In Silico and In Vitro Study towards the Rational Design of 4,4′-Disarylbisthiazoles as a Selective α-Synucleinopathy Biomarker” (International Journal of Molecular Sciences, 2023).

By Ki is commonly meant the equilibrium dissociation constant of an inhibitor or competing ligand from its target.

A short description of data set [1]: Solubility in the incubation medium of the binding assays. In kind it is physicochemical. As to conditions: incubation buffer of the binding assays.
The target of data set [2] is T1, recombinant α-syn fibrils (Homo sapiens, UniProt P37840).
T1 construct: made in house
The data set is described as follows: Competition binding assay against [^3H]DCVJ, α-syn fibrils. As to conditions: for Selectivity Aβ/α-syn / Selectivity tau/α-syn: ratio of Ki, [^3H]DCVJ was used. Here is the method:
The incubation of purified recombinant α-synuclein monomer (10 mg/mL) obtained as described by Uzuegbunam was carried out in PBS (pH 7.4) at 37 °C. The solution was left shaking at 900 rpm in an Eppendorf Thermomixer for up to 84 h. Determination of the concentration of the formed fibrils (α-syn) was carried out following the centrifugation of the reaction vial at 12,000× g for 5 min. The pellet obtained was washed thrice with 20 mM of Tris-HCl, pH 7.4. The supernatants from the three centrifugation steps were combined, and the concentration of the monomer in the resulting supernatant was determined in a BCA assay (Thermo Fisher Scientific, Waltham, MA, USA) (with a BSA standard curve). Determination of the concentration of α-syn was carried out by subtracting the amount of α-synuclein monomer in the supernatant from the initial amount used for fibrillation.
(§1) The pellets of the fibrils obtained above (Section 4.2.1) were resuspended in 20 mM of Tris-HCl, pH 7.4 and diluted as needed for the binding assays.
(§2) A fixed concentration of [^3H]DCVJ (10 nM) and α-synuclein aggregates (125 nM), prepared as described above (Section 4.2.3), was used with different final concentrations of the DABTAs from 0.01 to 100 nM (see SI Figure S1). The experiment was carried out in quintuplicate for each concentration. The mixture was incubated for 2 h in a final volume of 200 μL per well after dilution with 20 mM of Tris-HCl, pH 7.4. The incubated mixtures were filtered through a Perkin Elmer GF/B glass filter via a TOMTEC cell harvester and immediately washed thrice with 1 mL of deionized water. The filters containing the bound ligands were dried and afterwards mixed with 3 mL of BetaPlate Scint solution (Perkin Elmer Life Sciences, Waltham, MA, USA) and left there for 2 h before counting in a Wallac 1450 MicroBeta TriLux Liquid Scintillation Counter (PerkinElmer Life Sciences, Waltham, MA, USA). For the determination of the inhibition constants, data were analyzed using GraphPad Prism software (version 7.0) to obtain IC50 values by fitting the data to the equation Y = bottom + (top − bottom)/(1 + 10(x − log IC50)). Ki values were calculated from IC50 values using the equation Ki = IC50/(1 + [radioligand]/Kd). […] Further protocol was carried out as for [^3H]DCVJ (see SI Figure S3).

The target in a further data set is T2, Aβ1−42 fibrils (Homo sapiens, UniProt P05067).
T2 construct: 1 mg of β-amyloid1–42 peptide (Abcam, Cambridge, UK); purchased Abcam
T2 sequence (P05067 672-713): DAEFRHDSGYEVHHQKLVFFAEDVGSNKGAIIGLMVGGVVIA
The data set is described as follows: Competition binding assay against [^3H]PiB, Aβ1−42 fibrils. The following applies: read-out: Ki Aβ. Here is the method:
After the dissolution of 1 mg of β-amyloid1–42 peptide (Abcam, Cambridge, UK) in 50 μL of DMSO, 925 μL of Milli-Q® water was added to it, and the mixture was stirred. Finally, 25 μL of 1M Tris HCl, pH 7.4 was added to bring the final peptide concentration to 1 mg/mL. The mixture was then left to incubate at 37 °C for 30 h with shaking at 900 rpm. To separate the non-aggregated monomers from the formed fibrils, the reaction mixture was centrifuged at 12,000× g for 5 min, and the resulting pellet was washed three times with 500 μL of 20 mM Tris-HCl, pH 7.4. The supernatants from the three centrifugation steps were combined, and the concentration of the monomer in the resulting supernatant was determined in a BCA assay (Thermo Fisher Scientific, Waltham, MA, USA) (with a BSA standard curve). Determination of the concentration of fibrils formed was carried out by subtracting the amount of β-amyloid1−42 peptide monomer in the supernatant from the initial amount used for fibrillation.
as §1, §2
Further procedures followed the same already described in Section 4.2.3.1 (See SI Figure S4).

The target in another data set is tau fibrils (Homo sapiens, UniProt P10636). The data set is described as follows: Competition binding assay against [^3H]DCVJ, tau fibrils. As to conditions: [^3H]DCVJ was used (20 nM); tau aggregates 125 nM. Here is the method:
as §2, with “Recombinant tau monomer (R&D systems, Minneapolis, MN, USA) was dissolved in 20 mM of Tris HCl, pH 8.0, 100 mM of NaCl, 25 μM of low-MW heparin, and 0.5 mM of dithiothreitol to a final concentration of 300 µg/mL. The mixture was incubated with shaking at 900 rpm at 37 °C for 48 h. To separate the non-aggregated monomers from the formed fibrils, the reaction mixture was centrifuged at 12,000× g for 5 min, and the resulting pellet was washed three times with 500 μL of 20 mM Tris-HCl, pH 7.4. The supernatants from the three centrifugation steps were combined, and the concentration of the monomer in the resulting supernatant was determined in a BCA assay(Thermo Fisher Scientific, Waltham, MA, USA) (with a BSA standard curve). Determination of the concentration of fibrils formed was carried out by subtracting the amount of tau peptide monomer in the supernatant from the initial amount used for fibrillation. The pellets of the fibrils obtained above (Section 4.2.1) were resuspended in 20 mM of Tris-HCl, pH 7.4 and diluted as needed for the binding assays. A fixed” for “A fixed”, “Figure S3). Fixed concentrations (125 nM) of Aβ1−42, tau aggregates, and [^3H]DCVJ (10 nM and 20 nM for the Aβ1−42 and tau competition experiments respectively) were used with different concentrations of cold versions of the tracers from 1 to 1000 nM (See SI Figure S2). The experiment was performed in quadruplicate for each concentration. Further procedures followed the same already described in Section 4.2.3.1.” for “Figure S3).”

[3] abbreviates: [^3H]DCVJ was used (10 nM), α-synuclein aggregates 125 nM.

Sequence of tau fibrils (P10636 2-758): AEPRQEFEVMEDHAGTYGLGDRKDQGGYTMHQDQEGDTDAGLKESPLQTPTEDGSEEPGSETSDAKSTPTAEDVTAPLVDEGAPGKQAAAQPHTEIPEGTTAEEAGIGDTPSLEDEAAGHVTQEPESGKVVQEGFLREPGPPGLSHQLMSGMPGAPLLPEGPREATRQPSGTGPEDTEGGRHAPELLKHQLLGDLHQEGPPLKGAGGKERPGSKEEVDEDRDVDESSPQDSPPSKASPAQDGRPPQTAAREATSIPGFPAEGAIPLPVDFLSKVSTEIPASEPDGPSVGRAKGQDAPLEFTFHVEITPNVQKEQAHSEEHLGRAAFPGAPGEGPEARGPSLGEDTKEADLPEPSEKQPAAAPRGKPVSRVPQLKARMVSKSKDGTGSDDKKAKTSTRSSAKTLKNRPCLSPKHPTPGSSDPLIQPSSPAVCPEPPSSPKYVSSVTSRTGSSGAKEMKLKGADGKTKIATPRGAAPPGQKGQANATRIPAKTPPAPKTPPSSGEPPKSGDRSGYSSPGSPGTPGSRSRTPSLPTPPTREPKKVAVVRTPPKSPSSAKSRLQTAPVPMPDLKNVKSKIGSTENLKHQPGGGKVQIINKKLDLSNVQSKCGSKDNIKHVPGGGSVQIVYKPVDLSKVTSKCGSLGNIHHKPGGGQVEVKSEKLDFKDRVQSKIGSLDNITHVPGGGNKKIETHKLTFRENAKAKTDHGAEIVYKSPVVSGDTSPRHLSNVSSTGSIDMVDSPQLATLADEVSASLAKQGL

Turning to `Fc1ncc(-c2csc(-c3nc(-c4cnc5c(c4)OCO5)cs3)n2)cn1` [d10], the “solubility in the incubation medium” value in data set [1] is “decreased solubility”. The results for the Ki (in data set [2] (setting [3]); at Aβ1−42 fibrils; on tau fibrils) were 1.36 nM, 214 nM and more than 1000 nM, respectively. Further, in data set [2], the “Selectivity Aβ/α-syn” value worked out at 299.1. In addition, the “Selectivity tau/α-syn” value in data set [2] is on record as more than 735.3.
As for `FCCOc1cnc(-c2csc(-c3nc(-c4cnc5c(c4)OCO5)cs3)n2)nc1` [f4, 6-(4′-(5-(2-Fluoroethoxy)pyrimidin-2-yl)-[2,2′-bithiazol]-4-yl)-[1,3]dioxolo[4,5-b]pyridine], the values for the Ki (in data set [2] (setting [3]); at Aβ1−42 fibrils; on tau fibrils) were 0.99 nM, 185 nM and 465 nM, respectively. Also, in data set [2], the “Selectivity Aβ/α-syn” value came out at 253.1. The “Selectivity tau/α-syn” value in data set [2] stood at 469.6.
The corresponding values for `FCCOc1cnc(-c2csc(-c3nc(-c4ccc5c(c4)OCO5)cs3)n2)nc1` [f5, 4-(Benzo[d][1,3]dioxol-5-yl)-4′-(5-(2-fluoroethoxy)pyrimidin-2-yl)-2,2′-bithiazole] are 2.27 nM, 155 nM, 515 nM, 58.9 and 227.0.
Turning to `FCCOCCOc1cnc(-c2csc(-c3nc(-c4ccc5c(c4)OCO5)cs3)n2)nc1` [f6, 4-(Benzo[d][1,3]dioxol-5-yl)-4′-(5-(2-(2-fluoroethoxy)ethoxy)pyrimidin-2-yl)-2,2′-bithiazole], the results for the Ki (in data set [2] (setting [3]); at Aβ1−42 fibrils; on tau fibrils) were 0.5 nM, 96.7 nM and 437 nM, respectively. Besides, the “Ki α-syn” value in data set [2] (setting [3]) is given as “subnanomolar”. Further, in data set [2], the “Selectivity Aβ/α-syn” value turned out to be 395.6. In addition, the “Selectivity tau/α-syn” value in data set [2] is 874.4.
